In assay [1] the test system is K562. Put plainly: Inhibition of protein synthesis in human K562 cells assessed as [14C]L-leucine incorporation at 3.5 uM after 120 mins. Format: functional. Further details: scale not given: the % may be the effect or the level left.
In assay [2] the test system is K562. Put plainly: Inhibition of transcription in human K562 cells at 3.5 uM after 120 mins. On the set-up: scale not given: the % may be the effect or the level left. Format: functional.
The subject of assay [3] is MCF7. Put plainly: Cytotoxicity against human MCF7 cells at <=100 uM. Format: functional, cell-based.
The test system of assay [4] is Jurkat. In words: Cytotoxicity against human Jurkat cells at <=100 uM. The class given is functional, cell-based.
Assay [5] concerns HeLa. In words: Cytotoxicity against human HeLa cells at <=100 uM. Format: functional, cell-based.
The subject of assay [6] is K562. In words: Cytotoxicity against human K562 cells at <=100 uM. Format: functional, cell-based.
For assay [7], the system named is MCF7. Put plainly: Cytotoxicity against human MCF7 cells. The class given is functional, cell-based.
The test system of assay [8] is HeLa. Put plainly: Cytotoxicity against human HeLa cells. The class given is functional, cell-based.
Assay [9] has as its system K562. Put plainly: Cytotoxicity against human K562 cells. The class given is functional, cell-based.
Assay [10] deals with Jurkat. Put plainly: Cytotoxicity against human Jurkat cells. Format: functional, cell-based.
Assay [11] deals with K562. In words: Inhibition of transcription in human K562 cells at 4 uM after 120 mins. On the set-up: scale not given: the % may be the effect or the level left. The class given is functional.
For assay [12], the system named is K562. In words: Inhibition of DNA synthesis in human K562 cells assessed as [14C]thymidine incorporation at 4 uM after 120 mins. The class given is functional. Further details: scale not given: the % may be the effect or the level left.
The test system of assay [13] is K562. In words: Inhibition of cellular respiration in human K562 cells at 1.25 to 5 uM. The class given is functional, cell-based.
Assay [14] relates to K562. In words: Inhibition of RNA synthesis in human K562 cells assessed as inhibition of [14C]uridine incorporation upto 5 uM after 120 mins. Format: functional, cell-based.
The test system of assay [15] is K562. Put plainly: Inhibition of DNA synthesis in human K562 cells assessed as [14C]thymidine incorporation at 1.25 uM after 60 mins. The class given is functional. Further details: scale not given: the % may be the effect or the level left.
Assay [16] deals with K562. Put plainly: Inhibition of DNA synthesis in human K562 cells assessed as [14C]thymidine incorporation at 1.25 uM after 120 mins. Further details: scale not given: the % may be the effect or the level left. Format: functional.
The subject of assay [17] is K562. In words: Inhibition of protein synthesis in human K562 cells assessed as inhibition of [14C]L-leucine incorporation at 1.25 uM after 60 mins. The class given is functional, cell-based.
Assay [18] relates to K562. In words: Inhibition of protein synthesis in human K562 cells assessed as [14C]L-leucine incorporation at 1.25 uM after 120 mins. The class given is functional. On the set-up: scale not given: the % may be the effect or the level left.
The subject of assay [19] is K562. Put plainly: Inhibition of protein synthesis in human K562 cells assessed as [14C]L-leucine incorporation at 5 uM after 60 mins. Further details: scale not given: the % may be the effect or the level left. Format: functional.
Assay [20] deals with K562. In words: Inhibition of protein synthesis in human K562 cells assessed as [14C]L-leucine incorporation at 5 uM after 120 mins. The class given is functional. Further details: scale not given: the % may be the effect or the level left.
Assay [21] deals with K562. Put plainly: Inhibition of DNA synthesis in human K562 cells assessed as [14C]thymidine incorporation at 5 uM after 60 mins. The class given is functional. On the set-up: scale not given: the % may be the effect or the level left.
For assay [22], the system named is K562. In words: Inhibition of DNA synthesis in human K562 cells assessed as [14C]thymidine incorporation at 5 uM after 120 mins. The class given is functional. On the set-up: scale not given: the % may be the effect or the level left.
Assay [23] concerns K562. Put plainly: Inhibition of DNA synthesis in human K562 cells assessed as [14C]thymidine incorporation at 0.47 uM after 120 mins. Format: functional. Further details: scale not given: the % may be the effect or the level left.
For assay [24], the system named is K562. Put plainly: Inhibition of protein synthesis in human K562 cells assessed as [14C]L-leucine incorporation at 0.47 uM after 120 mins. Further details: scale not given: the % may be the effect or the level left. Format: functional.
In assay [25] the test system is K562. In words: Inhibition of transcription in human K562 cells at 0.47 uM after 120 mins. Further details: scale not given: the % may be the effect or the level left. The class given is functional.

Calls of active or inactive are those of the source. No cut-off for these calls is given here. Starred links: 1 amine or outer side, 2 acyl side, 3 side chain; linkers in the order of their positions; H or OH if unused. Positions of bridges follow the written chain, without caps; N, C: chain ends. Non-standard residues stand in square brackets, D forms with d. Residues, ends and D or L forms follow the SMILES beside them. Chains are numbered I, II in the order given. Actinocin(1to9) = Cc1c2oc3c(C)ccc(C(=O)[*:2])c3nc-2c(C(=O)[*:1])c(N)c1=O; NMeV = CN[C@H](C(=O)O)C(C)C; Sar = CNCC(=O)O

On to `C[C@@H]1C[C@@H]([C@H](O)CC2CC(=O)NC(=O)C2)C(=O)[C@@H](C)C1` [CYCLOHEXIMIDE], for which the values for the Activity in the assay with K562 [1] and in the assay on K562 [2] were 26% and 99%, respectively.
Regarding `COc1cc(O)c(C(=O)OCC2=C[C@]3(O)CC(C)(C)[C@H](O)[C@@H]3[C@@]3(C)C[C@@H](O)[C@@]23O)c(C)c1Cl`, the Activity entry with MCF7 [3], in the assay on Jurkat [4], with HeLa [5] and in the assay with K562 [6] was “Not toxic” throughout.
Regarding `COc1cc(C)c(C(=O)O[C@@H]2C[C@]3(C)[C@H]4CC(C)(C)C[C@H]4C=C(C=O)[C@]23O)c(O)c1` [ARMILLARIN], the IC50 in the assay with MCF7 [7] came to 11.6 µM; in the assay with HeLa [8], 16.7 µM; in the assay with K562 [9] it was 9.9 µM.
For `Cc1c(Cl)c(O)cc(O)c1C(=O)O[C@@H]1C[C@]2(C)[C@H]3CC(C)(C)C[C@@]3(O)C=C(CO)[C@]12O`, the 50% inhibitory concentration (IC50) in the assay with MCF7 [7] was more than 100 µM; in the assay on Jurkat [10] it was 46.6 µM; with HeLa [8], more than 100 µM; in the assay on K562 [9] it was more than 100 µM.
In the case of `COc1cc(O)c(C(=O)O[C@@H]2C[C@]3(C)[C@H]4CC(C)(C)C[C@H]4C=C(CO)[C@]23O)c(C)c1Cl`, the IC50 in the assay with MCF7 [7] came out at 21.3 µM; with Jurkat [10], 10.4 µM; in the assay with HeLa [8], 40 µM; in the assay on K562 [9] it was 38.9 µM.
The matching figures for `COc1cc(O)c(C(=O)O[C@@H]2C[C@]3(C)[C@H]4CC(C)(C)C[C@H]4C=C(C=O)[C@]23OC)c(C)c1Cl`: 6.7 µM, 4.1 µM, 18.8 µM and 20.6 µM.
For `COc1cc(O)c(C(=O)O[C@@H]2C[C@]3(C)[C@H]4[C@@H](O)C(C)(C)C[C@@]4(O)C=C(CO)[C@]23O)c(C)c1Cl`, the Activity result with MCF7 [3], in the assay on Jurkat [4], with HeLa [5] and with K562 [6] was “Not toxic” each time.
As for `COc1cc(O)c(C(=O)O[C@@H]2C[C@]3(C)[C@H]4CC(C)(CO)C[C@@]4(O)C=C(CO)[C@]23O)c(C)c1Cl` (stereo not given in full), the Activity result in the assay with MCF7 [3], in the assay on Jurkat [4], in the assay with HeLa [5] and with K562 [6] was “Not toxic” in each case.
For `Cc1c2oc3c(C)ccc(C(=O)N[C@@H]4C(=O)N[C@H](C(C)C)C(=O)N5CCC[C@H]5C(=O)N(C)CC(=O)N(C)[C@@H](C(C)C)C(=O)O[C@@H]4C)c3nc-2c(C(=O)N[C@@H]2C(=O)N[C@H](C(C)C)C(=O)N3CCC[C@H]3C(=O)N(C)CC(=O)N(C)[C@@H](C(C)C)C(=O)O[C@@H]2C)c(N)c1=O` [DACTINOMYCIN] (I: T[dV]P[Sar][NMeV] / II: T[dV]P[Sar][NMeV]; ester I:1-I:C, II:1-II:C; linker I:N-II:N via Actinocin(1to9)), the Activity is given as 2% in the assay on K562 [11] and 58% in the assay on K562 [12].
Consider `Cc1cc(O)cc(O)c1C(=O)O[C@@H]1C[C@]2(C)[C@H]3CC(C)(C)C[C@@]3(O)C=C(CO)[C@]12O`, for which the Activity result in the assay with MCF7 [3], in the assay on Jurkat [4], with HeLa [5] and in the assay with K562 [6] was “Not toxic” in each case.
As for `Cc1cc(O)cc(O)c1C(=O)O[C@@H]1C[C@@]2(C)C1=C(C=O)[C@@H](O)[C@@H]1CC(C)(C)C[C@@H]12` [DEHYDROARMILLYLORSELLINATE], the IC50 was determined as 8 µM with MCF7 [7], 16.9 µM in the assay on Jurkat [10], 15.2 µM with HeLa [8] and 5 µM with K562 [9]. For the same compound, the inhibition result in the assay with K562 [13], with K562 [14] and with K562 [17] was “inactive” each time. Further, the Activity stood at 90% with K562 [15]; 71% with K562 [16]; 96% with K562 [18]; 76% in the assay with K562 [19]; 35% in the assay on K562 [20]; 70% in the assay on K562 [21]. In addition, the Activity in the assay on K562 [22] was found to be 35%.
`COc1cc(O)c(C(=O)O[C@@H]2C[C@]3(C)[C@H]4CC(C)(C)C[C@H]4C=C(C=O)[C@]23O)c(C)c1Cl` [ARMILLARIDIN]: the IC50 turned out to be 7.8 µM in the assay on MCF7 [7], 3 µM in the assay with Jurkat [10], 9.2 µM in the assay with HeLa [8] and 8.9 µM in the assay on K562 [9].
Taken in the same sequence, the figures for `COc1cc(O)c(C(=O)O[C@@H]2C[C@]3(C)[C@H]4CC(C)(C)C[C@H]4[C@H](O)[C@@H](CO)[C@]23O)c(C)c1Cl` were 26.5 µM, 13.3 µM, 35.8 µM and 25 µM.
Turning to `COc1cccc2c1C(=O)c1c(O)c3c(c(O)c1C2=O)C[C@@](O)(C(=O)CO)C[C@@H]3O[C@H]1C[C@H](N)[C@H](O)[C@H](C)O1` [DOXORUBICIN], the Activity in the assay with K562 [23] is on record as 46%; with K562 [24], 89%; in the assay on K562 [25] it was 79%.

The record behind these values is ChEMBL document CHEMBL1759949, “In vitro cytotoxicity of melleolide antibiotics: structural and mechanistic aspects” (Bioorg Med Chem Lett, 2011).
